According to ChEMBL document CHEMBL1130084, “Further definition of the D1 dopamine receptor pharmacophore: synthesis of trans-6,6a,7,8,9,13b-hexahydro-5H-benzo[d]naphth[2,1-b]azepines as rigid analogues of beta-phenyldopamine” (J Med Chem, 1997):

Tests used:
[1] = target: D(2) dopamine receptor (Rattus norvegicus) (UniProt P61169); assay: The compound is evaluated for the affinity towards Dopamine receptor D2, using [3H]-spiperone as ligand on rat striatal membranes.
[2] = target: D(1A) dopamine receptor (Rattus norvegicus) (UniProt P18901); assay: The compound is evaluated for the affinity towards Dopamine receptor D1, using [3H]- SCH 23390 as ligand on rat striatal membranes.
Sequence of D(1A) dopamine receptor (Rattus norvegicus) (P18901 whole entry): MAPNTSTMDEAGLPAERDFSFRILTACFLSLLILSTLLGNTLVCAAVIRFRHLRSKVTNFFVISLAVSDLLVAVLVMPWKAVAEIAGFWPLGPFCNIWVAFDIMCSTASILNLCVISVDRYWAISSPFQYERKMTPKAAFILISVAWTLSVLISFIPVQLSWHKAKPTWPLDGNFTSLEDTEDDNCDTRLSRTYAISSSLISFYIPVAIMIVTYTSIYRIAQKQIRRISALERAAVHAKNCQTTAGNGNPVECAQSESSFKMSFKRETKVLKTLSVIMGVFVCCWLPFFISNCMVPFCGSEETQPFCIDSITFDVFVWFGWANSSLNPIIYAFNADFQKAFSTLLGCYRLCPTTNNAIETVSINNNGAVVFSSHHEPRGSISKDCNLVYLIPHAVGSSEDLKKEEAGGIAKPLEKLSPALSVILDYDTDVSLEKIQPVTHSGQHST

Sequence of D(2) dopamine receptor (Rattus norvegicus) (P61169 whole entry): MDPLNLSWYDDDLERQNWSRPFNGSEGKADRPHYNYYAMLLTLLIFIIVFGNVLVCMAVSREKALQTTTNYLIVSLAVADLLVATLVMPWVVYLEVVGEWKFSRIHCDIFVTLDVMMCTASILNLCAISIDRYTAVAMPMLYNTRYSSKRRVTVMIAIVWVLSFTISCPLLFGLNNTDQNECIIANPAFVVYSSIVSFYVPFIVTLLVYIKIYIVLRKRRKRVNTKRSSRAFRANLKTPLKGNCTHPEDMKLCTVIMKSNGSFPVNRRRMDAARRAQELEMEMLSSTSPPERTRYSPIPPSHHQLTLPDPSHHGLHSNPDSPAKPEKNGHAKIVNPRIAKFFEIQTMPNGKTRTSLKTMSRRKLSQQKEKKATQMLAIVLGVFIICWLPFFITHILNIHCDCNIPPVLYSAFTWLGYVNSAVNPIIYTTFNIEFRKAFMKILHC

Structure (SMILES)	K0.5 [1] [nM]	K0.5 [2] [nM]
CN1CCc2ccccc2[C@@H]2c3cc(O)ccc3CC[C@H]21	> 10000	3950
Oc1cc2c(cc1O)[C@H]1c3ccccc3CCN[C@@H]1CC2	2220	2850
Oc1cc2c(cc1O)[C@H]1c3ccccc3CN[C@@H]1CC2		2.8
CN1Cc2ccccc2[C@@H]2c3cc(O)c(Br)cc3CC[C@H]21		322
CN1CCc2ccccc2[C@@H]2c3cc(O)c(I)cc3CC[C@H]21	2960	1380
